Measurements taken from PubChem BioAssay (NCI).
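48-hour exposure; five concentrations; linearly interpolated endpoints. GI50 = concentration required for 50% inhibition of growth. Definition used: TGI = concentration required for complete inhibition of growth.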

Experiments:
Test in all cases: NCI-60 cell line screen, 48 h
[1] = test system: ACHN renal
[2] = test system: SF-539 CNS
[3] = test system: HOP-92 NSCLC
[4] = test system: OVCAR-3 ovarian
[5] = test system: DU-145 prostate
[6] = test system: UACC-62 melanoma
[7] = test system: COLO 205 colon
[8] = test system: SK-MEL-28 melanoma
[9] = test system: NCI/ADR-RES ovarian
[10] = test system: MDA-MB-435
[11] = test system: OVCAR-5 ovarian
[12] = test system: RXF 393 renal
[13] = test system: SK-MEL-2 melanoma
[14] = test system: HCT-15 colon
[15] = test system: TK-10 renal
[16] = test system: M14 melanoma
[17] = test system: BT-549 breast
[18] = test system: NCI-H460 lung
[19] = test system: SNB-75 CNS
[20] = test system: UACC-257 melanoma
[21] = test system: UO-31 renal
[22] = test system: NCI-H23 lung
[23] = test system: HCC-2998 colon
[24] = test system: OVCAR-4 ovarian
[25] = test system: MDA-MB-231 breast
[26] = test system: SN12C renal
[27] = test system: SK-MEL-5 melanoma

C[C@H](C(=O)N[C@@H](Cc1ccc(-c2ccccc2)cc1)C(=O)NC1CC(C)(C)N(C)C(C)(C)C1)c1ccc(-c2ccccc2)c(F)c1
GI50 [1]: 1.62 µM | TGI [1]: 3.05 µM | GI50 [2]: 1.56 µM | TGI [2]: 3.03 µM | GI50 [3]: 1.26 µM | TGI [3]: 2.7 µM | GI50 [4]: 1.19 µM | TGI [4]: 2.56 µM | GI50 [5]: 1.58 µM | TGI [5]: 3 µM | GI50 [6]: 1.92 µM | TGI [6]: 3.63 µM | GI50 [7]: 1.37 µM | TGI [7]: 2.87 µM | GI50 [8]: 1.67 µM | TGI [8]: 3.18 µM | GI50 [9]: 1.77 µM | TGI [9]: 4.19 µM | GI50 [10]: 1.29 µM | TGI [10]: 2.56 µM | GI50 [11]: 1.46 µM | TGI [11]: 3 µM | GI50 [12]: 0.884 µM | TGI [12]: 2.28 µM | GI50 [13]: 1.61 µM | TGI [13]: 3.55 µM | GI50 [14]: 1.53 µM | TGI [14]: 2.94 µM | GI50 [15]: 1.75 µM | TGI [15]: 3.32 µM | GI50 [16]: 1.74 µM | TGI [16]: 3.39 µM | GI50 [17]: 1.62 µM | TGI [17]: 3.25 µM | GI50 [18]: 1.06 µM | TGI [18]: 2.43 µM | GI50 [19]: 1.35 µM | TGI [19]: 3.74 µM | GI50 [20]: 2.12 µM | TGI [20]: 3.8 µM | GI50 [21]: 1.27 µM | TGI [21]: 2.64 µM | GI50 [22]: 1.54 µM | TGI [22]: 3.08 µM | GI50 [23]: 1.74 µM | TGI [23]: 3.42 µM | GI50 [24]: 0.818 µM | TGI [24]: 2.84 µM | GI50 [25]: 1.49 µM | TGI [25]: 3.02 µM | GI50 [26]: 1.31 µM | TGI [26]: 2.77 µM | GI50 [27]: 1.59 µM | TGI [27]: 2.94 µM
